Reference: patent US8785619B1, “Nucleosides and oligonucleotides for studies on reversal of cytotoxic and mutagenic damage of DNA potential diagnostics tools” (ChemGenes Corporation, priority 2003, dated 2014)

Legend:
[1] = Kinetic studies of N6 protecting group deprotection in ammonia: migration of methyl group from N1 to N6 (Dimroth rearrangement), by TLC and HPLC; format: physicochemical
Description: Prior to utilize the N-6 chloroacetyl protected N-1 methyl-2′-deoxyadenosine 3′-cyanoethyl phosphoramidite, we carried out a number of kinetic studies for the deprotection of chloroacetyl group and determination of presence of any N-6 methyl
Our subsequent studies to develop a ideal group which would be cleanly removed under aq ammonia deprotection condition and would have negligible amount of Dimroth rearrangement product as bye product.
FIG. 7. 5′-DMT-N^1-Methyl-N^6-FMOC-2′-deoxyadenosine-Kinetic Test for FMOC. Deprotection (20% methanolic ammonia at 37 C. Note: The N-6 methyl migration product is seen 2.27% after complete deprotection.
(required to knock off Phenoxy acetyl from N^6 position). To minimize this migration, we introduced N-FMOC group in place of N-PAC which reduced 20% methanolic ammonia hydrolysis time to only 4 hours at 37° C. but even in 4 hours, approx. 2.5% migration took place. This migration of methyl group from N-^1 to N^6 position was confirmed by TLC & HPLC.

[2] = cited from earlier work
[3] = 2M methanolic ammonia at room temperature

With `COc1ccc(C(OCC2OC(n3cnc4c(=NC(=O)OCC5c6ccccc6-c6ccccc65)n(C)cnc43)CC2OP(OCCC#N)N(C(C)C)C(C)C)(c2ccccc2)c2ccc(OC)cc2)cc1` (stereo not drawn) [5′-DMT-N^1-Methyl-N^6-FMOC-2′-deoxyadenosine-3′-cyanoethyl, n,n-diisopropyl phosphoramidite] the “presence of N-6 methyl-2′-deoxy adenosine” value ([1]; aq ammonia deprotection) was “less than 1%”.

With `COc1ccc(C(OC[C@H]2O[C@@H](n3cnc4c(=NC(=O)OCC5c6ccccc6-c6ccccc65)n(C)cnc43)C[C@@H]2O)(c2ccccc2)c2ccc(OC)cc2)cc1` [5′-DMT-N^1-Methyl-N^6-FMOC-2′-deoxyadenosine] the “N-6 methyl migration product after complete deprotection” value ([1]; FMOC deprotection, 20% methanolic ammonia at 37 C (FIG. 7)) was 2.27%.

In the case of `Cn1cnc2c(ncn2[C@@H]2O[C@H](CO)[C@@H](O)[C@H]2O)c1=N` [N^1-methyl adenosine], the time stable [2, 3] is given as 3 days and the “time to total conversion into N6-methyl adenosine” value [2, 3] is given as 6 days.

In the case of `Cn1cnc2c(ncn2[C@H]2C[C@H](O)[C@@H](CO)O2)c1=N` [N^1-methyl-2′-deoxyadenosine], the “half life of conversion into N6-methyl-2′-deoxyadenosine” value ([2]; 25% aq. ammonia) is given as 36 h.

For “N-6 chloroacetyl protected N-1 methyl-2′-deoxyadenosine 3′-cyanoethyl phosphoramidite”, the “N-6 methyl-2′-deoxy adenosine formation (Dimroth rearrangement product)” value ([1]; deprotection of chloroacetyl group) was 8-10%.
